Experimental data reported in US8153693B2, “Compounds for the selective treatment of the intestinal immuno-inflammatory component of the celiac disease” (Giuliani International Limited, priority 2007, dated 2012).

Columns and labels:
IFN [1] = assay: Cytokine assay (ELISA) in culture liquids of duodenal biopsy organ cultures, 5-ASA 1.5-8.0 mg per ml, 4 h to 72 h: IFN; assay type: cell-based, human; settings: for IFN, PT + 5ASA C, Mean / IFN, PT + 5ASA C, Median: peptic-tryptic digest of gliadin (PT)
Method: (§1) 3 groups of subjects were evaluated. The first (atrophic) group included 29 subjects with serum tests positive to antiendomysium and anti-transglutaminase antibodies, with a neo-diagnosis of celiac disease and gluten-containing diet. The second (Remission) group included 17 celiac disease subjects in clinical remission and gluten-free diet for at least 6 months. The third (Healthy) group included subjects not suffering from the celiac disease but suffering from inflammation of the gastro-enteric tract. […] The biopsies were washed in saline for two minutes at least three times. […] Three different amounts of medium are shared for the ELISA assay of Th1 and Th2 cytokines released in culture media.

TNF [2] = assay: Cytokine assay (ELISA) in culture liquids of duodenal biopsy organ cultures: TNF; assay type: cell-based, human; settings: for TNF, PT + 5ASA C, Mean / TNF, PT + 5ASA C, Median: peptic-tryptic digest of gliadin (PT)
Method: as §1

IFN [3] = assay: Cytokine assay (ELISA) from homogenate of cultured duodenal biopsies: IFN; assay type: cell-based, human; settings: for IFN, PT + 5ASA O, Mean / IFN, PT + 5ASA O, Median: peptic-tryptic digest of gliadin (PT)
Method: (§2) The biopsies were washed in saline for two minutes at least three times. […] After an incubation time ranging from 4 h to 72 h, at a T of 37° C.: The bioptic fragment is washed three times in saline for two minutes The biopsies are homogenised by mechanical or chemical disintegration Centrifugation is carried out, the supernatant is collected and transferred in a 1.5 ml Eppendorf Fixed cytokines in the mucosal tissue are assayed by the Elisa assay.

TNF [4] = assay: Cytokine assay (ELISA) from homogenate of cultured duodenal biopsies: TNF; assay type: cell-based, human; settings: for TNF, PT + 5ASA O, Mean / TNF, PT + 5ASA O, Median: peptic-tryptic digest of gliadin (PT)
Method: as §2

cytokines = assay: Organ culture of duodenal biopsies, cytokines overall; assay type: cell-based, human; settings: biopsies of celiac disease subjects versus subjects without celiac disease
Method: The biopsies were washed in saline for two minutes at least three times. The biopsies were placed in culture media having a volume equal to 1 ml: The biopsies are incubated in an O2 (95%) and CO2 (5%) atmosphere at a temperature of 37° C. for a period ranging from 4 h to 72 h. Three different amounts of medium are shared for the ELISA assay of Th1 and Th2 cytokines released in culture media.

IL-2 = assay: Gene expression (mRNA) by RT-PCR in cultured duodenal biopsies of celiac patients: IL-2; assay type: cell-based, human; settings: PT medium with 5-ASA versus PT medium, 37° C., 48 h; optical density of bands
TFN-alpha = assay: Gene expression (mRNA) by RT-PCR in cultured duodenal biopsies of celiac patients: TFN-alpha; assay type: cell-based, human; settings: PT medium with 5-ASA versus PT medium, 37° C., 48 h; optical density of bands
IFN-gamma = assay: Gene expression (mRNA) by RT-PCR in cultured duodenal biopsies of celiac patients: IFN-gamma; assay type: cell-based, human; settings: PT medium with 5-ASA versus PT medium, 37° C., 48 h; optical density of bands
PPARγ = target: T1, PPARγ (Homo sapiens, UniProt P37231); assay: PPARγ activation, PPRE luciferase reporter in transfected HT-29 STD cells (Example 7); assay type: cell-based; settings: 30 mM, positive control
T1 construct: HT-29 STD cells were transiently transfected using the Effectene™ transfection reagent; endogenous in cells; host or cells: HT-29 STD (ATCC HTB-38)
T1 sequence (P37231 1-505): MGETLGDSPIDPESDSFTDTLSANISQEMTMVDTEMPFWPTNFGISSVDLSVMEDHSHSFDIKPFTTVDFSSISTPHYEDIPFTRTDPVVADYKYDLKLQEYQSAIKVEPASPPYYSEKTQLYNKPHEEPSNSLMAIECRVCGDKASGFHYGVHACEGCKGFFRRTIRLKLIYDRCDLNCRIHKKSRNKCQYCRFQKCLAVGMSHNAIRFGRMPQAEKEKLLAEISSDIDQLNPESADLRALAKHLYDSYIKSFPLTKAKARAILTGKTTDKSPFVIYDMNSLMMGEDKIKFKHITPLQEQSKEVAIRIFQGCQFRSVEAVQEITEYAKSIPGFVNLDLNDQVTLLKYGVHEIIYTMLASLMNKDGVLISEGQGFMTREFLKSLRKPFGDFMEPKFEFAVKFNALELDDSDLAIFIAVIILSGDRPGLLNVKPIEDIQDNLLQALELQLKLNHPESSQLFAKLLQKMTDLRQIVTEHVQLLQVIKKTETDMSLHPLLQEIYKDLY

[5] = Atrophic population, N 22, Wilcoxon p = 0.05
[6] = Atrophic population, N 22, Wilcoxon p = 0.08
[7] = Positive control population, N 7
[8] = Positive control population, N 7, Wilcoxon p = N.S.
[9] = Remission population, N 15, Wilcoxon p = 0.022
[10] = Remission population, N 15, Wilcoxon p = N.S.
[11] = Atrophic population, N 21, Wilcoxon p = N.S.
[12] = Atrophic population, N 9, Wilcoxon p = 0.003
[13] = Atrophic population, N 9, Wilcoxon p = 0.019
[14] = Remission population, N 4, Wilcoxon p = N.S.
[15] = Atrophic population, N 11, Wilcoxon p = 0.002
[16] = Atrophic population, N 11, Wilcoxon p = N.S.
[17] = Remission population, N 5, Wilcoxon p = N.S.

increase of the reporter gene activity (PPARγ): 2.8±0.7 fold
SMILES: Nc1ccc(O)c(C(=O)O)c1 [Compound 5ASA, mesalazine]
IFN, Difference PT C/PT + 5ASA C, Mean (IFN [1]; [5]): 0.0657
IFN, Difference PT C/PT + 5ASA C, Median (IFN [1]; [5]): 0.0505
IFN, Difference Medium C/Medium + 5ASA C, Mean (IFN [1]; [6]): 0.0601
IFN, Difference Medium C/Medium + 5ASA C, Median (IFN [1]; [6]): 0.0260
IFN, PT + 5ASA C, Mean (IFN [1]; Atrophic population, N 22): 0.145
IFN, PT + 5ASA C, Median (IFN [1]; Atrophic population, N 22): 0.0545
IFN, Medium + 5ASA C, Mean (IFN [1]; [7]): 0.149
IFN, Medium + 5ASA C, Median (IFN [1]; [7]): 0.140
IFN, Difference Medium C/Medium + 5ASA C, Mean (IFN [1]; [8]): 0.004
IFN, Difference Medium C/Medium + 5ASA C, Median (IFN [1]; [8]): 0.029
IFN, Difference PT C/PT + 5ASA C, Mean (IFN [1]; [8]): 0.0247
IFN, Difference PT C/PT + 5ASA C, Median (IFN [1]; [8]): 0.0090
IFN, PT + 5ASA C, Mean (IFN [1]; [7]): 0.116
IFN, PT + 5ASA C, Median (IFN [1]; [7]): 0.121
IFN, Medium + 5ASA C, Mean (IFN [1]; Remission population, N 15): 0.201
IFN, Medium + 5ASA C, Median (IFN [1]; Remission population, N 15): 0.208
IFN, Difference PT C/PT + 5ASA C, Mean (IFN [1]; [9]): 0.101
IFN, Difference PT C/PT + 5ASA C, Median (IFN [1]; [9]): 0.0210
IFN, Difference Medium C/Medium + 5ASA C, Mean (IFN [1]; [10]): 0.0383
IFN, Difference Medium C/Medium + 5ASA C, Median (IFN [1]; [10]): 0.0500
IFN, PT + 5ASA C, Mean (IFN [1]; Remission population, N 15): 0.153
IFN, PT + 5ASA C, Median (IFN [1]; Remission population, N 15): 0.0960
TNF, Medium + 5ASA C, Mean (TNF [2]; Atrophic population, N 21): 0.472
TNF, Medium + 5ASA C, Median (TNF [2]; Atrophic population, N 21): 0.204
TNF, Difference PT C/PT + 5ASA C, Median (TNF [2]; Atrophic population, N 21, Wilcoxon p < 0.0001): 0.0580
TNF, Difference Medium C/Medium + 5ASA C, Mean (TNF [2]; [11]): 0.0048
TNF, Difference Medium C/Medium + 5ASA C, Median (TNF [2]; [11]): 0.0150
TNF, PT + 5ASA C, Mean (TNF [2]; Atrophic population, N 21): 0.414
TNF, PT + 5ASA C, Median (TNF [2]; Atrophic population, N 21): 0.120
TNF, Medium + 5ASA C, Mean (TNF [2]; [7]): 0.259
TNF, Medium + 5ASA C, Median (TNF [2]; [7]): 0.229
TNF, Difference Medium C/Medium + 5ASA C, Mean (TNF [2]; [8]): 0.005
TNF, Difference Medium C/Medium + 5ASA C, Median (TNF [2]; [8]): 0.0040
TNF, Difference PT C/PT + 5ASA C, Mean (TNF [2]; [8]): 0.0226
TNF, Difference PT C/PT + 5ASA C, Median (TNF [2]; [8]): 0.0250
TNF, PT + 5ASA C, Mean (TNF [2]; [7]): 0.291
TNF, Medium + 5ASA C, Mean (TNF [2]; Remission population, N 15): 0.894
TNF, Medium + 5ASA C, Median (TNF [2]; Remission population, N 15): 0.571
TNF, Difference PT C/PT + 5ASA C, Median (TNF [2]; Remission population, N 15, Wilcoxon p = 0.005): 0.221
TNF, Difference Medium C/Medium + 5ASA C, Mean (TNF [2]; [10]): 0.0541
TNF, Difference Medium C/Medium + 5ASA C, Median (TNF [2]; [10]): 0.0790
TNF, PT + 5ASA C, Mean (TNF [2]; Remission population, N 15): 0.305
TNF, PT + 5ASA C, Median (TNF [2]; Remission population, N 15): 0.545
IFN, Medium + 5ASA O, Mean (IFN [3]; Atrophic population, N 9): 0.202
IFN, Medium + 5ASA O, Median (IFN [3]; Atrophic population, N 9): 0.193
IFN, Difference Medium O/Medium + 5ASA O, Mean (IFN [3]; [12]): 0.0951
IFN, Difference Medium O/Medium + 5ASA O, Median (IFN [3]; [12]): 0.0560
IFN, Difference PT O/PT + 5ASA O, Mean (IFN [3]; [13]): 0.0437
IFN, Difference PT O/PT + 5ASA O, Median (IFN [3]; [13]): 0.0380
IFN, PT + 5ASA O, Mean (IFN [3]; Atrophic population, N 9): 0.179
IFN, PT + 5ASA O, Median (IFN [3]; Atrophic population, N 9): 0.193
IFN, Medium + 5ASA O, Mean (IFN [3]; Remission population, N 4): 0.133
IFN, Difference Medium O/Medium + 5ASA O, Mean (IFN [3]; [14]): 0.120
IFN, Difference PT O/PT + 5ASA O, Mean (IFN [3]; [14]): 0.0230
IFN, Difference PT O/PT + 5ASA O, Median (IFN [3]; [14]): 0.0215
IFN, PT + 5ASA O, Mean (IFN [3]; Remission population, N 4): 0.177
IFN, PT + 5ASA O, Median (IFN [3]; Remission population, N 4): 0.161
TNF, Medium + 5ASA O, Mean (TNF [4]; Atrophic population, N 11): 0.123
TNF, Difference PT O/PT + 5ASA O, Mean (TNF [4]; [15]): 0.0554
TNF, Difference PT O/PT + 5ASA O, Median (TNF [4]; [15]): 0.0270
TNF, Difference Medium O/Medium + 5ASA O, Mean (TNF [4]; [16]): 0.0154
TNF, Difference Medium O/Medium + 5ASA O, Median (TNF [4]; [16]): 0.0100
TNF, PT + 5ASA O, Mean (TNF [4]; Atrophic population, N 11): 0.101
TNF, PT + 5ASA O, Median (TNF [4]; Atrophic population, N 11): 0.0980
TNF, Medium + 5ASA O, Mean (TNF [4]; Remission population, N 5): 0.122
TNF, Difference Medium O/Medium + 5ASA O, Mean (TNF [4]; [17]): −0.00
TNF, Difference Medium O/Medium + 5ASA O, Median (TNF [4]; [17]): 0.0050
TNF, Difference PT O/PT + 5ASA O, Mean (TNF [4]; [17]): 0.0194
TNF, Difference PT O/PT + 5ASA O, Median (TNF [4]; [17]): 0.0210
TNF, PT + 5ASA O, Mean (TNF [4]; Remission population, N 5): 0.107
TNF, PT + 5ASA O, Median (TNF [4]; Remission population, N 5): 0.110
effect of Mesalazine in culture media on the cytokines (cytokines): blocks the cytokines in celiac disease subjects only
gene expression (mRNA) of IL-2 (IL-2): well reduced
gene expression (mRNA) of TFN-alpha (TFN-alpha): well reduced
gene expression (mRNA) of IFN-gamma (IFN-gamma): well reduced
